Laboratory results published in ChEMBL document CHEMBL1138660, “Contribution of ionization and lipophilicity to drug binding to albumin: a preliminary step toward biodistribution prediction” (J Med Chem, 2004).

Assays:
[1] = human, plasma
physchem [2] = settings: buffer, pH 7.4
Description: Distribution coeeficient for the compound at pH7.4 (Log D7.4)

physchem [3] = assay: physchem
Description: pKa value of the compound

Row | Compound | B(DPB) [1] | logD (physchem [2]) | pKa (physchem [3])
1 | CCCC(=O)Nc1ccc(OCC(O)CNC(C)C)c(C(C)=O)c1 (centres undefined) [ACEBUTOLOL] | 0% |  | 
2 | NS(=O)(=O)c1cc(C(=O)O)c(NCc2ccco2)cc1Cl [FUROSEMIDE] | 87.2% |  | 
3 | CN(Cc1cnc2nc(N)nc(N)c2n1)c1ccc(C(=O)N[C@@H](CCC(=O)O)C(=O)O)cc1 [METHOTREXATE] | 49.9% | -2.52 | 
4 | COc1ccc2cc([C@H](C)C(=O)O)ccc2c1 [NAPROXEN] | > 95% |  | 

Other lines, results leading:

Row | B(DPB) [1] | logD (physchem [2]) | pKa (physchem [3]) | Compound
5 | 93.4% | 4.25 | 7.17 | COC(=O)C1=C(C)NC(C)=C(C(=O)OCCN(C)Cc2ccccc2)C1c1cccc([N+](=O)[O-])c1 (centres undefined) [NICARDIPINE]
6 | 3.9% | -0.48 | 8.48 | CNC(=C[N+](=O)[O-])NCCSCc1ccc(CN(C)C)o1 [RANITIDINE]
7 | 89.6% | -0.32 | 4.95 | CN1C(C(=O)Nc2ccccn2)=C(O)c2sccc2S1(=O)=O [TENOXICAM]
